Assay results taken from patent EP3002287B1, “Thiochromeno[2,3-c]quinolin-12-one derivatives and their use as topoisomerase inhibitors” (National Defense Medical Center, priority 2014, dated 2016).

How the values were obtained:
SF-539 = experiment: NCI in vitro 60-cell drug screen (SRB assay); assay type: cell-based; conditions: SF-539 (CNS cancer); 10^-5 molar concentration; 48 hours
NCI/ADR-RES = experiment: NCI in vitro 60-cell drug screen (SRB assay); assay type: cell-based; conditions: NCI/ADR-RES (Ovarian cancer); 10^-5 molar concentration; 48 hours
UO-31 = experiment: NCI in vitro 60-cell drug screen (SRB assay); assay type: cell-based; conditions: UO-31 (Renal cancer); 10^-5 molar concentration; 48 hours
UACC-257 = experiment: NCI in vitro 60-cell drug screen (SRB assay); assay type: cell-based; conditions: UACC-257 (Melanoma); 10^-5 molar concentration; 48 hours
NCI-H23 = experiment: NCI in vitro 60-cell drug screen (SRB assay); assay type: cell-based; conditions: NCI-H23 (Non-small cell lung cancer); 10^-5 molar concentration; 48 hours
SK-MEL-5 = experiment: NCI in vitro 60-cell drug screen (SRB assay); assay type: cell-based; conditions: SK-MEL-5 (Melanoma); 10^-5 molar concentration; 48 hours
SK-OV-3 = experiment: NCI in vitro 60-cell drug screen (SRB assay); assay type: cell-based; conditions: SK-OV-3 (Ovarian cancer); 10^-5 molar concentration; 48 hours
LOX IMVI = experiment: NCI in vitro 60-cell drug screen (SRB assay); assay type: cell-based; conditions: LOX IMVI (Melanoma); 10^-5 molar concentration; 48 hours
K-562 = experiment: NCI in vitro 60-cell drug screen (SRB assay); assay type: cell-based; conditions: K-562 (Leukemia); 10^-5 molar concentration; 48 hours
HS 578T = experiment: NCI in vitro 60-cell drug screen (SRB assay); assay type: cell-based; conditions: HS 578T (Breast cancer); 10^-5 molar concentration; 48 hours
HL-60(TB) = experiment: NCI in vitro 60-cell drug screen (SRB assay); assay type: cell-based; conditions: HL-60(TB) (Leukemia); 10^-5 molar concentration; 48 hours
CCRF-CEM = experiment: NCI in vitro 60-cell drug screen (SRB assay); assay type: cell-based; conditions: CCRF-CEM (Leukemia); 10^-5 molar concentration; 48 hours
PC-3 = experiment: NCI in vitro 60-cell drug screen (SRB assay); assay type: cell-based; conditions: PC-3 (Prostate cancer); 10^-5 molar concentration; 48 hours
COLO 205 = experiment: NCI in vitro 60-cell drug screen (SRB assay); assay type: cell-based; conditions: COLO 205 (Colon cancer); 10^-5 molar concentration; 48 hours
NCI-H522 = experiment: NCI in vitro 60-cell drug screen (SRB assay); assay type: cell-based; conditions: NCI-H522 (Non-small cell lung cancer); 10^-5 molar concentration; 48 hours
A549/ATCC = experiment: NCI in vitro 60-cell drug screen (SRB assay); assay type: cell-based; conditions: A549/ATCC (Non-small cell lung cancer); 10^-5 molar concentration; 48 hours
HCT-15 = experiment: NCI in vitro 60-cell drug screen (SRB assay); assay type: cell-based; conditions: HCT-15 (Colon cancer); 10^-5 molar concentration; 48 hours
T-47D = experiment: NCI in vitro 60-cell drug screen (SRB assay); assay type: cell-based; conditions: T-47D (Breast cancer); 10^-5 molar concentration; 48 hours
HCT-116 = experiment: NCI in vitro 60-cell drug screen (SRB assay); assay type: cell-based; conditions: HCT-116 (Colon cancer); 10^-5 molar concentration; 48 hours
OVCAR-5 = experiment: NCI in vitro 60-cell drug screen (SRB assay); assay type: cell-based; conditions: OVCAR-5 (Ovarian cancer); 10^-5 molar concentration; 48 hours
UACC-62 = experiment: NCI in vitro 60-cell drug screen (SRB assay); assay type: cell-based; conditions: UACC-62 (Melanoma); 10^-5 molar concentration; 48 hours
NCI-H226 = experiment: NCI in vitro 60-cell drug screen (SRB assay); assay type: cell-based; conditions: NCI-H226 (Non-small cell lung cancer); 10^-5 molar concentration; 48 hours
SF-295 = experiment: NCI in vitro 60-cell drug screen (SRB assay); assay type: cell-based; conditions: SF-295 (CNS cancer); 10^-5 molar concentration; 48 hours
HOP-62 = experiment: NCI in vitro 60-cell drug screen (SRB assay); assay type: cell-based; conditions: HOP-62 (Non-small cell lung cancer); 10^-5 molar concentration; 48 hours
SF-268 = experiment: NCI in vitro 60-cell drug screen (SRB assay); assay type: cell-based; conditions: SF-268 (CNS cancer); 10^-5 molar concentration; 48 hours
IGROV1 = experiment: NCI in vitro 60-cell drug screen (SRB assay); assay type: cell-based; conditions: IGROV1 (Ovarian cancer); 10^-5 molar concentration; 48 hours
DU-145 = experiment: NCI in vitro 60-cell drug screen (SRB assay); assay type: cell-based; conditions: DU-145 (Prostate cancer); 10^-5 molar concentration; 48 hours
MCF7 = experiment: NCI in vitro 60-cell drug screen (SRB assay); assay type: cell-based; conditions: MCF7 (Breast cancer); 10^-5 molar concentration; 48 hours
TK-10 = experiment: NCI in vitro 60-cell drug screen (SRB assay); assay type: cell-based; conditions: TK-10 (Renal cancer); 10^-5 molar concentration; 48 hours
SN12C = experiment: NCI in vitro 60-cell drug screen (SRB assay); assay type: cell-based; conditions: SN12C (Renal cancer); 10^-5 molar concentration; 48 hours
CAKI-1 = experiment: NCI in vitro 60-cell drug screen (SRB assay); assay type: cell-based; conditions: CAKI-1 (Renal cancer); 10^-5 molar concentration; 48 hours
60 cell lines = experiment: NCI in vitro 60-cell drug screen (SRB assay), whole panel statistics; conditions: mean over the cell panel; 10^-5 molar concentration; 48 hours
A498 = experiment: NCI in vitro 60-cell drug screen (SRB assay); assay type: cell-based; conditions: A498 (Renal cancer); 10^-5 molar concentration; 48 hours
OVCAR-3 = experiment: NCI in vitro 60-cell drug screen (SRB assay); assay type: cell-based; conditions: OVCAR-3 (Ovarian cancer); 10^-5 molar concentration; 48 hours
BT-549 = experiment: NCI in vitro 60-cell drug screen (SRB assay); assay type: cell-based; conditions: BT-549 (Breast cancer); 10^-5 molar concentration; 48 hours
SNB-75 = experiment: NCI in vitro 60-cell drug screen (SRB assay); assay type: cell-based; conditions: SNB-75 (CNS cancer); 10^-5 molar concentration; 48 hours
MDA-MB-435 = experiment: NCI in vitro 60-cell drug screen (SRB assay); assay type: cell-based; conditions: MDA-MB-435 (Melanoma); 10^-5 molar concentration; 48 hours

Row | Structure (SMILES) | Growth percent (SF-539) [%] | Growth percent (NCI/ADR-RES) [%] | Growth percent (UO-31) [%] | Growth percent (UACC-257) [%] | Growth percent (NCI-H23) [%] | Growth percent (SK-MEL-5) [%] | Growth percent (SK-OV-3) [%] | Growth percent (LOX IMVI) [%] | Growth percent (K-562) [%] | Growth percent (HS 578T) [%] | Growth percent (HL-60(TB)) [%] | Growth percent (CCRF-CEM) [%] | Growth percent (PC-3) [%] | Growth percent (COLO 205) [%] | Growth percent (NCI-H522) [%] | Growth percent (A549/ATCC) [%] | Growth percent (HCT-15) [%] | Growth percent (T-47D) [%] | Growth percent (HCT-116) [%] | Growth percent (OVCAR-5) [%] | further results
1 | O=c1c2cc(Cl)ccc2sc2c(N3CCN(CCO)CC3)nc3ccccc3c12 [Compound 10, 10-Chloro-6-(4-(2-hydroxyethyl)piperazin-1-yl)-12H-thiochrom eno[2,3-c]quinolin-12one] | 86.18 | 92.05 | 42.34 | 102.79 | 84.75 | 94.13 | 95.12 | 87.79 | 35.47 | 76.01 | 93.81 | 83.46 | 77.99 | 88.90 | 94.76 | 95.49 | 82.92 | 87.22 | 69.33 | 95.70 | Growth percent (UACC-62): 91.36%; Growth percent (NCI-H226): 89.29%; Growth percent (SF-295): 100.32%; Growth percent (HOP-62): 67.83%; Growth percent (SF-268): 87.80%; Growth percent (IGROV1): 71.67%; Growth percent (DU-145): 96.26%; Growth percent (MCF7): 51.73%; Growth percent (TK-10): 93.19%; Growth percent (SN12C): 86.81%; Growth percent (CAKI-1): 87.87%; Growth percent, Mean (60 cell lines): 84.06%; Growth percent (A498): 62.20%; Growth percent (OVCAR-3): 93.92%; Growth percent (BT-549): 90.05%; Growth percent (SNB-75): 77.64%; Growth percent (MDA-MB-435): 98.24%
2 | O=c1c2cc(Cl)ccc2sc2c(N3CCN(Cc4ccccc4)CC3)nc3ccccc3c12 [Compound 11, 6-(4-Benzylpiperazin-1-yl)-10-chloro-12H-thiochromeno[2,3-c]q uinolin-12-one] | 108.56 | 98.31 | 64.91 | 95.39 | 89.94 | 98.38 | 94.79 | 94.22 | 87.84 | 76.42 | 100.96 | 95.42 | 89.12 | 105.64 | 96.69 | 106.37 | 94.51 | 89.22 | 98.59 | 111.92 | Growth percent (UACC-62): 96.00%; Growth percent (NCI-H226): 88.98%; Growth percent (SF-295): 94.34%; Growth percent (HOP-62): 87.72%; Growth percent (SF-268): 100.42%; Growth percent (IGROV1): 93.49%; Growth percent (DU-145): 111.61%; Growth percent (MCF7): 68.32%; Growth percent (TK-10): 124.99%; Growth percent (SN12C): 97.70%; Growth percent (CAKI-1): 94.03%; Growth percent, Mean (60 cell lines): 96.19%; Growth percent (A498): 94.17%; Growth percent (OVCAR-3): 101.69%; Growth percent (BT-549): 114.05%; Growth percent (SNB-75): 82.62%; Growth percent (MDA-MB-435): 96.99%
3 | O=c1c2cc(Cl)ccc2sc2c(N3CCN(c4ccccc4)CC3)nc3ccccc3c12 [Compound 12, 10-Chloro-6-(4-phenylpiperazin-1-yl)-12H-thiochromeno[2,3-c] quinolin-12-one] | 100.06 | 100.81 | 63.85 | 93.68 | 93.80 | 103.57 | 100.39 | 95.15 | 112.37 | 85.20 | 113.79 | 98.41 | 90.66 | 111.67 | 93.50 | 98.54 | 99.81 | 104.57 | 105.36 | 108.10 | Growth percent (UACC-62): 104.48%; Growth percent (NCI-H226): 87.10%; Growth percent (SF-295): 99.23%; Growth percent (HOP-62): 86.00%; Growth percent (SF-268): 103.82%; Growth percent (IGROV1): 91.38%; Growth percent (DU-145): 111.15%; Growth percent (MCF7): 74.16%; Growth percent (TK-10): 112.45%; Growth percent (SN12C): 102.66%; Growth percent (CAKI-1): 97.83%; Growth percent, Mean (60 cell lines): 99.30%; Growth percent (A498): 81.04%; Growth percent (OVCAR-3): 109.63%; Growth percent (BT-549): 123.95%; Growth percent (SNB-75): 94.73%; Growth percent (MDA-MB-435): 102.39%
